Reference: patent publication US7947685B2, “Pyrazine-2-carboxyamide derivatives” (Hoffmann-La Roche Inc., priority 2005, dated 2011)

These compounds were tested against T1, human mGlu 5a receptor (Homo sapiens, UniProt P41594) (assay: [3H]MPEP competition binding on membranes of EBNA cells transiently transfected with human mGlu 5a receptor). Details: displacement of [3H]MPEP (2 nM), 1 h at 4° C.
T1 construct: expressed in transfected cells; host or cells: EBNA cells (transient transfection); cell membrane homogenates
T1 sequence (P41594 21-1180 isoform P41594-2 limits assumed): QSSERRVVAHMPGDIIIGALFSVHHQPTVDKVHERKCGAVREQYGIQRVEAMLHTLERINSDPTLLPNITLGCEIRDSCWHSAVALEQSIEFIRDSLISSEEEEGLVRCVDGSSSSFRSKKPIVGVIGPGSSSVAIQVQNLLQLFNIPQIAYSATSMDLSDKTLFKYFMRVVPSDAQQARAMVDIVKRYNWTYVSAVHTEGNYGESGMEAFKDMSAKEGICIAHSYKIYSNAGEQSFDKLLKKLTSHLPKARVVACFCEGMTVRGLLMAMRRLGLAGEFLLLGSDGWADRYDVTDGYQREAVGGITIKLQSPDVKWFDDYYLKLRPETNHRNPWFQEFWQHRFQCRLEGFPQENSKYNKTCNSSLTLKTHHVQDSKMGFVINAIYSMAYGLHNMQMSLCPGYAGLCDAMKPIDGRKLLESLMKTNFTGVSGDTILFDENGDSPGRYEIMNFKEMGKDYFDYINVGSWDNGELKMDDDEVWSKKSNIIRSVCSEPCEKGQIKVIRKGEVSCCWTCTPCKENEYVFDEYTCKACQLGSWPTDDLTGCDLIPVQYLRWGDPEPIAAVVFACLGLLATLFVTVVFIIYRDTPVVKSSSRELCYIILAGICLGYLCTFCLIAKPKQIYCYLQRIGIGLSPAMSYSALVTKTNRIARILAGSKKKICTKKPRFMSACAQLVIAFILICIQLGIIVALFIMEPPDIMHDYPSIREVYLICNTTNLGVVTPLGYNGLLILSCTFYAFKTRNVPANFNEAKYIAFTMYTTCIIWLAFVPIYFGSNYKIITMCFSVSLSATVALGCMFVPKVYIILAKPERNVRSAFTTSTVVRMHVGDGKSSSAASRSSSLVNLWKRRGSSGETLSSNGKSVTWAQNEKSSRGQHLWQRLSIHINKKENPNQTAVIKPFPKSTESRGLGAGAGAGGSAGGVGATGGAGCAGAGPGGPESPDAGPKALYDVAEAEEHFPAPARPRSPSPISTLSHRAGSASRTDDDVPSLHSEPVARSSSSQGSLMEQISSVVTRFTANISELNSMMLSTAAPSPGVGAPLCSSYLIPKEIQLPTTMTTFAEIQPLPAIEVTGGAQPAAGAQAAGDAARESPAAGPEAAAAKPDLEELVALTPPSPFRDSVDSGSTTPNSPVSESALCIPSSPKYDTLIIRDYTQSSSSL
Method: The pharmacological activity of the compounds was tested using the following method: For binding experiments, cDNA encoding human mGlu 5a receptor was transiently transfected into EBNA cells using a procedure described by Schlaeger and Christensen [Cytotechnology 15:1-13 (1998)]. Cell membrane homogenates were stored at −80° C. until the day of assay where upon they were thawed and resuspended and polytronized in 15 mM Tris-HCl, 120 mM NaCl, 100 mM KCl, 25 mM CaCl2, 25 mM MgCl2 binding buffer at pH 7.4 to a final assay concentration of 20 μg protein/well.
Saturation isotherms were determined by addition of twelve [^3H]MPEP concentrations (0.04-100 nM) to these membranes (in a total volume of 200 μl) for 1 h at 4° C. Competition experiments were performed with a fixed concentration of [^3H]MPEP (2 nM), and IC50 values of test compounds evaluated using […] (0.3-10,000 nM). Incubations were performed for 1 h at 4° C.
At the end of the incubation, membranes were filtered onto unifilter (96-well white microplate with bonded GF/C filter preincubated 1 h in 0.1% PEI in wash buffer, Packard BioScience, Meriden, Conn.) with a Filtermate 96 harvester (Packard BioScience) and washed 3 times with cold 50 mM Tris-HCl, pH 7.4 buffer. Nonspecific binding was measured in the presence of 10 μM MPEP. The radioactivity on the filter was counted (3 min) on a Packard Top-count microplate scintillation counter with quenching correction after addition of 45 μl of microscint 40 (Canberra Packard S.A., Zürich, Switzerland) and shaking for 20 min.
The inhibition (antagonists) curves were fitted with a four parameter logistic equation giving IC50, and Hill coefficient using iterative non linear curve fitting software (Xcel fit).
For binding experiments the Ki values of the compounds tested are given. The Ki value is defined by the following formula: Ki=IC50/[1+L/Kd] in which the IC50 values are these concentrations of the compounds tested which cause 50% inhibition of the competing radioligand ([^3H]MPEP). L is the concentration of radioligand used in the binding experiment and the Kd value of the radioligand is empirically determined for each batch of membranes prepared.
For O=C(Nc1cccc(Cl)c1)c1nccnc1Nc1cccnc1 [Example 1, 3-(Pyridin-3-ylamino)-pyrazine-2-carboxylic acid (3-chloro-phenyl)-amide], the Ki was 54 nM. O=C(Nc1cccc(Cl)c1)c1nccnc1Nc1ccccc1 [Example 2, 3-Phenylamino-pyrazine-2-carboxylic acid (3-chloro-phenyl)-amide] gave a Ki of 95 nM. Compound Cn1ccc(NC(=O)c2nccnc2Nc2cncc(F)c2)n1 [Example 3, 3-(5-Fluoro-pyridin-3-ylamino)-pyrazine-2-carboxylic acid (1-methyl-1H-pyrazol-3-yl)-amide] has a Ki of 71 nM. Cc1cc(NC(=O)c2nccnc2Nc2ccccc2)ccn1 [Example 4, 3-Phenylamino-pyrazine-2-carboxylic acid (2-methyl-pyridin-4-yl)-amide] showed a Ki of 761 nM. Compound Cc1cc(NC(=O)c2nc(C)cnc2Nc2cncc(Cl)c2)ccn1 [Example 5, 3-(5-Chloro-pyridin-3-ylamino)-6-methyl-pyrazine-2-carboxylic acid (2-methyl-pyridin-4-yl)-amide] has a Ki of 1630 nM.
